Holding throughout (assay): NCI anticancer screen, dose series, 48 h
In test [1] the test system is IGROV1 ovarian.
Test [2] concerns HCT-15 colon.
Test [3] deals with COLO 205 colon.
The subject of test [4] is UO-31 renal.
In test [5] the test system is M14 melanoma.
The test system of test [6] is RPMI-8226 leukemia.
The subject of test [7] is HOP-92 NSCLC.
Test [8] deals with NCI-H23 lung.
Test [9] concerns SNB-75 CNS.
Test [10] deals with NCI-H522 lung.

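Dose response: 5 concentrations. Exposure: 48 h. Format: 96-well plates. Endpoint: linear interpolation; highest concentration if not reached. At the GI50, growth is halved. TGI marks complete inhibition of growth.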

`CC(=O)Nc1[nH]c(=O)[nH]c(=O)c1N(C(C)=O)C(C)=O`: the TGI in test [1], in test [2], in test [3], in test [4], in test [5] and in test [6] was more than 100 µM throughout. This compound also showed a TGI in [7] of more than 100 µM.
On to `COc1ccc(/C=C/CO)cc1OC`, for which the TGI in [1], in test [2], in [3], in [4], in [8] and in test [6] was more than 100 µM throughout. Also, the TGI in [9] and in [7] was more than 100 µM each time.
Turning to `COc1cc([N+](=O)[O-])c2ncccc2c1O`, the GI50 in test [1] was 4.51 µM; in test [2], 2.56 µM; in [3], 1.7 µM; in test [4], 2.05 µM; in test [5], 1.45 µM; in test [8], 1.37 µM. Also, the GI50 in [6] is 27.7 µM; in [9] it was 2.96 µM; in test [7] it was 47.1 µM. Moreover, the TGI came out at 25.5 µM in test [1]; 13.4 µM in [2]; 3.46 µM in test [3]; 10.4 µM in test [4]; 3.02 µM in [5]; 4.8 µM in [8]. The TGI in test [6] is more than 100 µM; in [9], 17.2 µM; in test [7] it was more than 100 µM.
`NC(=O)c1ccc(NC(=O)c2oc3ccccc3c2-c2cnn(-c3ccccc3)c2)cc1`: the GI50 is more than 100 µM in test [4]; more than 100 µM in test [5]; 6 µM in test [8]; more than 100 µM in test [10]; 1.89 µM in test [9]; 1.69 µM in test [7]. The TGI in test [4] is more than 100 µM; in [5] it was more than 100 µM; in test [8], more than 100 µM; in test [10], more than 100 µM; in [9], 8.31 µM; in test [7] it was 6.46 µM.
In the case of `C[P+](C)(CC(F)(F)F)c1ccccc1`, the TGI in test [1], in test [2], in [3], in [4], in test [5] and in test [8] was more than 100 µM throughout. In addition, the TGI in test [6], in [10] and in test [9] was more than 100 µM in each case.
Turning to `O=[N+]([O-])C(=C(c1ccccc1)c1ccccc1)[N+](=O)[O-]`, the TGI in test [1] amounted to 23.2 µM; in [2], 32.6 µM; in test [3], 24.9 µM; in test [4], 36.6 µM; in test [5], 25.4 µM; in [8], 52.8 µM. The TGI in test [6] is 6.43 µM; in test [10], 31.3 µM; in test [9] it was 28.5 µM.
For the compound `COc1cc(C=NCC(=O)CSC(c2ccccc2)c2ccccc2)cc(OC)c1OC`, the GI50 was 21.5 µM in test [2]; 4.96 µM in [3]; 22.6 µM in test [4]; 27 µM in [5]; 26 µM in test [8]; 5.18 µM in test [6]. Further, the results for the GI50 in test [9] and in test [7] were 25.5 µM and 8.59 µM, respectively. For the same compound, the TGI in test [2] is more than 100 µM; in [3] it was 33 µM; in test [4], more than 100 µM; in test [5] it was more than 100 µM; in [8] it was more than 100 µM; in test [6], 39.9 µM. The TGI in test [9] and in test [7] was more than 100 µM throughout.
Turning to `Cc1cc(Br)cc(C)c1NC(=O)C(=O)C(C(=O)c1ccc(Cl)c(Cl)c1)C1OC(=O)c2ccccc21` (configuration not stated), the TGI in test [1], in test [2], in test [3], in test [4], in test [5] and in [8] was more than 100 µM throughout. Also, the TGI in [6] and in [10] was more than 100 µM each time.
`c1ccc(CN(Cc2ccccn2)Cn2cccn2)nc1`: the TGI in [2] was 78.9 µM; in [3], more than 100 µM; in test [4] it was more than 100 µM; in test [5] it was more than 100 µM; in test [8], more than 100 µM; in test [6], 75.6 µM. Moreover, the TGI in test [10], in test [9] and in [7] was more than 100 µM throughout.
As for `Cc1ccc(C)c2sc3cc(=O)ccc-3nc12`, the TGI in test [1] is more than 100 µM; in test [2], more than 100 µM; in test [3], more than 100 µM; in [4], more than 100 µM; in test [5] it was 42.7 µM; in test [8], more than 100 µM. In addition, the TGI in test [10] is 67.6 µM; in [9] it was more than 100 µM; in test [7] it was 83.3 µM.
Regarding `CC1=C[C@H]2C[C@@]3(C)O[C@@H]([C@]4(C)CC[C@H]([C@@H](C)C(=O)O)OO4)CC3C(C)(C)[C@H]2CC1` (some centres not stated), the TGI came out at 3.31 µM in test [3]; 2.59 µM in test [4]; 2.96 µM in test [5]; 3.55 µM in test [8]; 0.832 µM in [10]; 2.35 µM in test [9]. Besides, the TGI in [7] amounted to 0.273 µM.
On to `C(=C1/CCCCC([n+]2ccccc2)=N1)/c1ccccc1`, for which the TGI in [2], in [3], in test [4], in test [5], in test [8] and in test [6] was more than 100 µM in each case. Also, the TGI in [10], in test [9] and in test [7] was more than 100 µM each time.
On to `Cc1ccc(C)c(NC(=O)CCc2n[nH]c(=S)o2)c1`, for which the TGI in test [1], in [2], in [3], in [4], in test [5] and in test [8] was more than 100 µM in each case. For the same compound, the TGI in test [10], in [9] and in test [7] was more than 100 µM each time.
Consider `C=C(C)[C@@H]1CC[C@]2(C#N)CC[C@]3(C)[C@H](CC[C@@H]4[C@@]5(C)CCCNC(C)(C)[C@@H]5CC[C@]43C)[C@@H]12`, for which the GI50 in [1] is 1.82 µM; in test [2] it was 1.61 µM; in test [3], 1.96 µM; in [4], 2.41 µM; in [5] it was 1.83 µM; in test [8], 3.32 µM. In addition, the GI50 in test [10] is 1.93 µM; in [7] it was 2.69 µM. For the same compound, the TGI was 3.47 µM in test [1]; 3.05 µM in [2]; 3.51 µM in test [3]; 7.92 µM in [4]; 3.49 µM in test [5]; 10.9 µM in test [8]. Further, the results for the TGI in test [10] and in test [7] were 3.61 µM and 11.3 µM, respectively.
For the compound `COc1ccc(CNc2cnc3cc(N)ccc3n2)cc1OC`, the TGI in test [2], in test [3], in test [4], in [5], in test [6] and in [10] was more than 100 µM each time. Besides, the TGI in test [9] was more than 100 µM.
For `O=C(O)c1oc2ccc([N+](=O)[O-])c3c2c1CCC3`, the TGI in [3], in test [4], in test [5], in [8], in test [10] and in [9] was more than 100 µM throughout. The TGI in test [7] was more than 100 µM.
Turning to `OCC(O)C(OC1OC(CO)C(O)C(O)C1O)c1nn(-c2ccc(F)cc2)c2nc3cc(Cl)c(Cl)cc3cc12` (configuration not stated), the TGI in test [2], in [4], in [5], in test [8], in test [6] and in test [10] was more than 100 µM each time. In test [9], this compound yielded a TGI of more than 100 µM.
On to `CC1=NN(C(=O)Cc2ccccc2)C(=O)/C1=C\c1cccc(O)c1`, for which the TGI in [2], in test [3], in test [4], in test [5], in [8] and in [6] was more than 100 µM in each case. The TGI in test [10] and in test [9] was more than 100 µM throughout.
Take `NC(=O)Cn1c(=O)[nH]c(=O)c2[nH]cnc21`: the TGI in test [1], in test [2], in test [3], in test [4], in [5] and in test [8] was more than 100 µM throughout. The TGI in [10] and in test [9] was more than 100 µM in each case.
As to `C/C(=N\NC(=S)Nc1ccc([N+](=O)[O-])cc1S(=O)(=O)O)c1ccccn1`, the TGI in [1], in [2], in [3], in test [4], in test [5] and in test [8] was more than 100 µM each time. Besides, the TGI in test [6], in test [9] and in test [7] was more than 100 µM throughout.
Take `Cc1cc(C(=O)NCCN(C)C)c2nc3ccccc3nc2c1`: the TGI is more than 29.5 µM in [1]; 27.6 µM in test [2]; more than 37.1 µM in [3]; more than 59.6 µM in test [4]; more than 33.5 µM in test [5]; 23.6 µM in test [8]. Moreover, the TGI in [6] is 41.2 µM; in test [10], more than 100 µM; in [9], 48.3 µM.
Consider `C/C(=N\n1c(N)c(C#N)c(-c2ccc(Cl)cc2)c(C#N)c1=O)c1cccnc1`, for which the GI50 in [1], in test [2], in test [3], in test [4], in test [5] and in test [8] was more than 100 µM each time. The values for the GI50 in [6] and in [9] were more than 100 µM and 14.6 µM, respectively. In addition, the TGI in test [1], in test [2], in test [3], in test [4], in [5] and in test [8] was more than 100 µM throughout. The figures for the TGI in test [6], in test [9] and in test [7] were more than 100 µM, 99.6 µM and 34.8 µM, respectively.
Consider `CN(C)/C(=N/C(=O)Nc1ccccc1)SCc1ccccc1`, for which the TGI in test [1], in test [2], in test [3], in [4], in [5] and in test [8] was more than 100 µM in each case. Further, the TGI in test [6], in test [10] and in test [9] was more than 100 µM in each case.
Take `C[Si](C)(C)[C@@]1([Se]c2ccccc2)CC[C@@H]1C(=O)c1ccccc1`: the TGI in [1], in [2], in test [3], in test [4], in [5] and in test [8] was more than 100 µM in each case. Moreover, the TGI in test [6] was 53 µM; in test [10] it was 58.1 µM; in test [9], more than 100 µM.
`NC(=O)c1ccc(-c2c3ccccc3cc3c2ccc2ccccc23)cc1`: the GI50 in test [1] is 7.6 µM; in test [2] it was 2.81 µM; in test [3] it was 3.82 µM; in test [4] it was 7.1 µM; in [5], 2.04 µM; in test [8], 10.7 µM. Further, the GI50 in test [6] is 5.6 µM; in [9] it was 2.19 µM; in test [7] it was 6.39 µM. In addition, the TGI in [1] is more than 100 µM; in test [2] it was more than 100 µM; in test [3], 36.5 µM; in [4], 39.5 µM; in test [5], 20.1 µM; in test [8], 84.4 µM. The TGI turned out to be 40.7 µM in test [6], 9.15 µM in test [9] and 25.8 µM in test [7].
`CC(C)(C)c1ccc(C(O)(c2ccc(C(C)(C)C)cc2)c2ccc(C(C)(C)C)cc2)cc1`: the TGI in [1], in test [2], in test [3], in test [4], in test [5] and in test [8] was more than 100 µM in each case. Further, the TGI in test [6], in test [10] and in test [9] was more than 100 µM in each case.
Regarding `O=C1CCCc2c(O)ccc(O)c21`, the TGI in test [1], in [2], in test [3], in test [4], in [5] and in test [8] was more than 100 µM each time. Besides, the TGI in test [6] was more than 100 µM; in test [10], 25.7 µM; in test [9], more than 100 µM.

Source of the values: PubChem BioAssay (NCI).
